# Laboratory results: ChEMBL document CHEMBL3414456, “Pentacyclic triterpene derivatives possessing polyhydroxyl ring A inhibit gram-positive bacteria growth by regulating metabolism and virulence genes expression” (2015)
# Active and inactive are the calls of the source. No cut-off for these calls is given here.
# What was measured:
# Bacillus spizizenii [1] = experiment: Antibacterial activity against Bacillus subtilis ATCC 6633 assessed as growth inhibition at 100 uM after 24 hrs by turbidimetric analysis; type: functional; settings: for inhibition of growth at 100 µM: ATCC 6633, 24 h, read-out: GI
# Staphylococcus aureus [2] = experiment: Antibacterial activity against Staphylococcus aureus ATCC 25923 assessed as growth inhibition at 100 uM after 24 hrs by turbidimetric analysis; type: functional; settings: for inhibition of growth at 100 µM: ATCC 25923, 24 h, read-out: GI
# Bacillus spizizenii [3] = experiment: Antibacterial activity against Bacillus subtilis ATCC 6633 assessed as growth inhibition after 2 to 24 hrs; type: functional, organism-based
# Streptomyces scabiei [4] = experiment: Antibacterial activity against Streptomyces scabiei CGMCC4.7610246 assessed as growth inhibition at 100 uM after 36 hrs by turbidimetric analysis; type: functional, organism-based
# Staphylococcus aureus [5] = experiment: Upregulation of seaR gene expression in Staphylococcus aureus ATCC 25923 at 0.5 x MIC by Q-RT-PCR analysis relative to control; type: functional, organism-based
# Streptomyces scabiei [6] = experiment: Downregulation of txtC gene expression in Streptomyces scabiei CGMCC4.7610246 at 0.5 x MIC by Q-RT-PCR analysis relative to control; type: functional, organism-based
# Streptomyces scabiei [7] = experiment: Downregulation of murX gene expression in Streptomyces scabiei CGMCC4.7610246 at 0.5 x MIC by Q-RT-PCR analysis relative to control; type: functional, organism-based
# Staphylococcus aureus [8] = experiment: Upregulation of fmhB gene expression in Staphylococcus aureus ATCC 25923 at 0.5 x MIC by Q-RT-PCR analysis relative to control; type: functional, organism-based
# Streptomyces scabiei [9] = experiment: Downregulation of tomA gene expression in Streptomyces scabiei CGMCC4.7610246 at 0.5 x MIC by Q-RT-PCR analysis relative to control; type: functional, organism-based
# Streptomyces scabiei [10] = experiment: Downregulation of necl gene expression in Streptomyces scabiei CGMCC4.7610246 at 0.5 x MIC by Q-RT-PCR analysis relative to control; type: functional, organism-based
# Streptomyces scabiei [11] = experiment: Downregulation of txtA gene expression in Streptomyces scabiei CGMCC4.7610246 at 0.5 x MIC by Q-RT-PCR analysis relative to control; type: functional, organism-based
# Staphylococcus aureus [12] = experiment: Upregulation of hla gene expression in Staphylococcus aureus ATCC 25923 at 0.5 x MIC by Q-RT-PCR analysis relative to control; type: functional, organism-based
# Streptomyces scabiei [13] = experiment: Downregulation of p450 gene expression in Streptomyces scabiei CGMCC4.7610246 at 0.5 x MIC by Q-RT-PCR analysis relative to control; type: functional, organism-based
# Staphylococcus aureus [14] = experiment: Antibacterial activity against Staphylococcus aureus after 24 hrs; type: functional
# Bacillus spizizenii [15] = experiment: Antibacterial activity against Bacillus subtilis ATCC 6633 assessed as growth inhibition after 24 hrs by turbidimetric analysis; type: functional; settings: ATCC 6633, 24 h
# Streptomyces scabiei [16] = experiment: Antibacterial activity against Streptomyces scabiei CGMCC4.7610246 assessed as growth inhibition after 36 hrs by turbidimetric analysis; type: functional; settings: CGMCC4.7610246, 36 h
# Streptomyces scabiei [17] = experiment: Antibacterial activity against Streptomyces scabiei CGMCC4.7610246 assessed as growth inhibition after 4 to 36 hrs; type: functional, organism-based
# Streptomyces scabiei [18] = experiment: Antibacterial activity against Streptomyces scabiei CGMCC4.7610246 assessed as killing time at 0.5 x MIC to 4 x MIC; type: functional
# Staphylococcus aureus [19] = experiment: Antibacterial activity against Staphylococcus aureus ATCC 25923 assessed as growth inhibition after 24 hrs by turbidimetric analysis; type: functional; settings: ATCC 25923, 24 h
# Staphylococcus aureus [20] = experiment: Antibacterial activity against […] Staphylococcus aureus ATCC 29213 by serial microplate method; type: functional
# Escherichia coli = experiment: Antibacterial activity against Escherichia coli ATCC 25922 by serial microplate method; type: functional
# Staphylococcus aureus [21] = experiment: Potency index, ratio of ampicillin MIC to compound MIC for Staphylococcus aureus ATCC 25923; type: functional
# Staphylococcus aureus [22] = experiment: Downregulation of lytM gene expression in Staphylococcus aureus ATCC 25923 at 0.5 x MIC by Q-RT-PCR analysis relative to control; type: functional, organism-based
# Staphylococcus aureus [23] = experiment: Antibacterial activity against Staphylococcus aureus ATCC 25923 assessed as growth inhibition after 2 to 24 hrs; type: functional, organism-based
# Staphylococcus aureus [24] = experiment: Antibacterial activity against Staphylococcus aureus; type: functional
# Bacillus subtilis = experiment: Antibacterial activity against Bacillus subtilis; type: functional
# Staphylococcus aureus [25] = experiment: Downregulation of narG gene expression in Staphylococcus aureus ATCC 25923 at 0.5 x MIC by Q-RT-PCR analysis relative to control; type: functional, organism-based
# Bacillus spizizenii [26] = experiment: Downregulation of yhdT gene expression in Bacillus subtilis ATCC 6633 at 0.5 x MIC by Q-RT-PCR analysis relative to control; type: functional, organism-based
# Bacillus spizizenii [27] = experiment: Downregulation of yqhB gene expression in Bacillus subtilis ATCC 6633 at 0.5 x MIC by Q-RT-PCR analysis relative to control; type: functional, organism-based
# Bacillus spizizenii [28] = experiment: Downregulation of mmgD gene expression in Bacillus subtilis ATCC 6633 at 0.5 x MIC by Q-RT-PCR analysis relative to control; type: functional, organism-based
# Bacillus spizizenii [29] = experiment: Upregulation of ykuD gene expression in Bacillus subtilis ATCC 6633 at 0.5 x MIC by Q-RT-PCR analysis relative to control; type: functional
# Bacillus spizizenii [30] = experiment: Downregulation of lytF gene expression in Bacillus subtilis ATCC 6633 at 0.5 x MIC by Q-RT-PCR analysis relative to control; type: functional, organism-based
# [31] = system: Meyerozyma guilliermondii; experiment: Antifungal activity against Candida guilliermondii by serial microplate method; type: functional
# Microsporum canis = experiment: Antifungal activity against Microsporum canis by serial microplate method; type: functional
smiles,measurement,setting,value
CC1(C)CC[C@]2(C(=O)O)CC[C@]3(C)C(=CC[C@@H]4[C@@]5(C)[C@H]6O[C@H]6[C@H](O)C(C)(C)[C@@H]5CC[C@]43C)[C@@H]2C1,growth inhibition (GI),Bacillus spizizenii [1],Active
same,growth inhibition (GI),Staphylococcus aureus [2],Active
same,growth inhibition (GI),Bacillus spizizenii [3],Dose-dependent effect
same,growth inhibition (GI),Streptomyces scabiei [4],Active
CC1(C)CC[C@]2(C(=O)O)CC[C@]3(C)C(=CC[C@@H]4[C@@]5(C)CC[C@H](O)C(C)(C)[C@@H]5CC[C@]43C)[C@@H]2C1,growth inhibition (GI),Bacillus spizizenii [1],Active
same,Activity,Staphylococcus aureus [5],Active
same,Activity,Streptomyces scabiei [6],Active
same,growth inhibition (GI),Staphylococcus aureus [2],Active
same,Activity,Streptomyces scabiei [7],Active
same,Activity,Staphylococcus aureus [8],Active
same,Activity,Streptomyces scabiei [9],Active
same,Activity,Streptomyces scabiei [10],Active
same,Activity,Streptomyces scabiei [11],Active
same,Activity,Staphylococcus aureus [12],Active
same,growth inhibition (GI),Streptomyces scabiei [4],Active
same,Activity,Streptomyces scabiei [13],inactive
C[C@H]1[C@H](C)C=C[C@]2(C(=O)O)CC[C@]3(C)C(=CC[C@H]4[C@]5(C)[C@H]([C@H](O)C[C@]43C)C(C)(C)[C@@H](O)[C@H](O)[C@@H]5O)[C@H]12,inhibition zone (IZ),Staphylococcus aureus [14],24 mm
COC(=O)[C@]12CCC(C)(C)C[C@H]1C1=CC[C@@H]3[C@@]4(C)[C@@H](O)[C@H](O)[C@H](O)C(C)(C)[C@@H]4CC[C@@]3(C)[C@]1(C)CC2,inhibition of growth at 100 µM,Bacillus spizizenii [1],> 95%
same,Activity,Streptomyces scabiei [6],Active
same,inhibition of growth at 100 µM,Staphylococcus aureus [2],> 95%
same,Activity,Streptomyces scabiei [7],Active
same,Activity,Streptomyces scabiei [9],Active
same,Activity,Streptomyces scabiei [10],Active
same,MIC,Bacillus spizizenii [15],64 µM
same,Activity,Streptomyces scabiei [11],Active
same,MIC,Streptomyces scabiei [16],4 µM
same,growth inhibition (GI),Streptomyces scabiei [17],Dose-dependent effect
same,Time,Streptomyces scabiei [18],>24 h
same,Activity,Streptomyces scabiei [13],Active
same,MIC,Staphylococcus aureus [19],≥ 100 µM
CC1(C)[C@@H](O)C[C@H](O)[C@]2(C)[C@H]3CC=C4[C@@H]5C[C@](C)(C(=O)O)CC[C@]5(C(=O)O)CC[C@@]4(C)[C@]3(C)CC[C@@H]12,MIC,Staphylococcus aureus [20],125 µg/mL
same,MIC,Escherichia coli,16 µg/mL
CCOC(=O)[C@]12CCC(C)(C)C[C@H]1C1=CC[C@@H]3[C@@]4(C)[C@@H](O)[C@H](O)[C@H](O)C(C)(C)[C@@H]4CC[C@@]3(C)[C@]1(C)CC2,inhibition of growth at 100 µM,Bacillus spizizenii [1],> 95%
same,Activity,Staphylococcus aureus [5],Active
same,inhibition of growth at 100 µM,Staphylococcus aureus [2],> 95%
same,Ratio,Staphylococcus aureus [21],2
same,Activity,Staphylococcus aureus [8],Active
same,MIC,Bacillus spizizenii [15],64 µM
same,Activity,Staphylococcus aureus [12],Active
same,MIC,Streptomyces scabiei [16],≥ 100 µM
same,Activity,Staphylococcus aureus [22],Active
same,growth inhibition (GI),Staphylococcus aureus [23],Dose-dependent effect
same,MIC,Staphylococcus aureus [19],1 µM
C[C@@]1(C(=O)O)CC[C@]2(C(=O)O)CC[C@]3(C)C(=CC[C@@H]4[C@@]5(C)[C@@H](O)C[C@H](O)[C@](C)(CO)[C@@H]5CC[C@]43C)[C@@H]2C1,MIC,Staphylococcus aureus [20],63 µg/mL
same,MIC,Escherichia coli,16 µg/mL
CC1OC(OC[C@]2(C)[C@@H](O)[C@@H](O)[C@@H](O)[C@]3(C)[C@H]4CC=C5[C@@H]6[C@@H](C)[C@H](C)CC[C@]6(C)CC[C@@]5(C)[C@]4(C)CC[C@@H]23)C(O)C(O)C1O (some centres undefined),MIC,Staphylococcus aureus [24],31.3 µg/mL
same,MIC,Bacillus subtilis,15.6 µg/mL
CCOC(=O)[C@]12CC[C@@H](C)[C@H](C)[C@H]1C1=CC[C@@H]3[C@@]4(C)[C@@H](O)[C@H](O)[C@H](O)C(C)(C)[C@@H]4CC[C@@]3(C)[C@]1(C)CC2,inhibition of growth at 100 µM,Bacillus spizizenii [1],> 95%
same,Activity,Staphylococcus aureus [5],Active
same,inhibition of growth at 100 µM,Staphylococcus aureus [2],> 95%
same,Ratio,Staphylococcus aureus [21],2
same,Activity,Staphylococcus aureus [8],Active
same,MIC,Bacillus spizizenii [15],64 µM
same,Activity,Staphylococcus aureus [12],Active
same,MIC,Streptomyces scabiei [16],≥ 100 µM
same,Activity,Staphylococcus aureus [22],Active
same,Activity,Staphylococcus aureus [25],Active
same,MIC,Staphylococcus aureus [19],2 µM
C[C@@H](O)[C@H]1C(=O)N2C(C(=O)O)=C(SCCNC=N)C[C@H]12 [IMIPENEM ANHYDROUS],inhibition zone (IZ),Staphylococcus aureus [14],33 mm
C[C@H]1[C@H](C)CC[C@]2(C(=O)O)CC[C@]3(C)C(=CC[C@@H]4[C@@]5(C)CC[C@H](O)C(C)(C)[C@@H]5CC[C@]43C)[C@H]12,growth inhibition (GI),Bacillus spizizenii [1],Active
same,Activity,Staphylococcus aureus [5],Active
same,growth inhibition (GI),Staphylococcus aureus [2],Active
same,Activity,Bacillus spizizenii [26],Active
same,Activity,Staphylococcus aureus [8],Active
same,Activity,Bacillus spizizenii [27],Active
same,Activity,Staphylococcus aureus [12],Active
same,Activity,Bacillus spizizenii [28],Active
same,growth inhibition (GI),Streptomyces scabiei [4],Active
same,Activity,Bacillus spizizenii [29],Active
same,Activity,Bacillus spizizenii [30],Active
C[C@H]1[C@H](C)CC[C@]2(C(=O)O)CC[C@]3(C)C(=CC[C@@H]4[C@@]5(C)C[C@@H](O)[C@H](O)C(C)(C)[C@@H]5CC[C@]43C)[C@H]12 [COROSOLIC ACID],MIC,[31],11.7 µg/mL
same,MIC,Microsporum canis,8 µg/mL
same,MIC,Staphylococcus aureus [20],7 µg/mL
CC(C)OC(=O)[C@]12CC[C@@H](C)[C@H](C)[C@H]1C1=CC[C@@H]3[C@@]4(C)[C@@H](O)[C@H](O)[C@H](O)C(C)(C)[C@@H]4CC[C@@]3(C)[C@]1(C)CC2,inhibition of growth at 100 µM,Bacillus spizizenii [1],> 95%
same,Activity,Staphylococcus aureus [5],Active
same,inhibition of growth at 100 µM,Staphylococcus aureus [2],> 95%
same,Activity,Bacillus spizizenii [26],Active
same,Ratio,Staphylococcus aureus [21],4
same,Activity,Staphylococcus aureus [8],Active
same,MIC,Bacillus spizizenii [15],4 µM
same,Activity,Bacillus spizizenii [27],inactive
same,Activity,Staphylococcus aureus [12],Active
same,Activity,Bacillus spizizenii [28],Active
same,MIC,Streptomyces scabiei [16],≥ 100 µM
same,fold change (FC),Bacillus spizizenii [29],2.5
same,growth inhibition (GI),Staphylococcus aureus [23],Dose-dependent effect
same,Activity,Staphylococcus aureus [25],Active
same,Activity,Bacillus spizizenii [30],Active
same,MIC,Staphylococcus aureus [19],1 µM
